According to US12660819B2, “Herbicidal derivatives” (SYNGENTA CROP PROTECTION AG, priority 2020, dated 2026):

Columns and labels:
Format in all cases: in vivo
[1] = test system: Echinochloa crus-galli (ECHCG); experiment: Pre-emergence Test (glasshouse, percentage damage to the plant); conditions: 1000 g/ha unless otherwise stated; for percentage damage to the plant, ECHCG: five-point scale; for percentage damage to the plant, ECHCG (five-point scale): Echinochloa crus-galli
[2] = test system: Setaria faberi (SETFA); experiment: Post-emergence Test (glasshouse, percentage damage to the plant); conditions: 1000 g/ha unless otherwise stated, evaluated after 13 days; for Post-emergence Test SETFA, percentage damage to the plant (five-point scale): post-emergence spray; for SETFA, percentage damage caused to the plant (five-point scale): post-emergence
How it was run: (§1)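 Spray treatment of sown glasshouse pots at 1000 g/ha (default rate), vehicle acetone/water 50:50 plus 0.5% Tween 20. Read-out: percentage damage after 13 days, converted to a score where 5 denotes 81-100% and 1 denotes 0-20%.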

[3] = test system: Lolium perenne (LOLPE); experiment: as above; conditions: post-emergence spray, 1000 g/ha unless otherwise stated, evaluated after 13 days
How it was run: (§2)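 After sowing in standard soil, pots were kept at 24/16 °C (day/night), 14 h light and 65% humidity. They were sprayed at 1000 g/ha unless otherwise stated, watered twice daily, and assessed for percentage damage at 13 days on a 1–5 scale.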

[4] = test system: Amaranthus retoflexus (AMARE); experiment: as above; conditions: 1000 g/ha unless otherwise stated, evaluated after 13 days; for Post-emergence Test AMARE, percentage damage to the plant (five-point scale): post-emergence spray; for AMARE, percentage damage caused to the plant (five-point scale): post-emergence
How it was run: as §2

[5] = test system: Ipomoea hederacea (IPOHE); experiment: as above; conditions: 1000 g/ha unless otherwise stated, evaluated after 13 days; for Post-emergence Test IPOHE, percentage damage to the plant (five-point scale): post-emergence spray; for IPOHE, percentage damage caused to the plant (five-point scale): post-emergence
How it was run: as §1

[6] = test system: Echinochloa crus-galli (ECHCG); experiment: as above; conditions: 1000 g/ha unless otherwise stated, evaluated after 13 days; for Post-emergence Test ECHCG, percentage damage to the plant (five-point scale): post-emergence spray; for ECHCG, percentage damage caused to the plant (five-point scale): post-emergence
How it was run: as §2

[7] = test system: Setaria faberi (SETFA); experiment: Pre-emergence Test (glasshouse, percentage damage to the plant); conditions: 1000 g/ha unless otherwise stated; for percentage damage to the plant, SETFA: five-point scale; for percentage damage to the plant, SETFA (five-point scale): Setaria faberi
[8] = test system: Lolium perenne (LOLPE); experiment: as above; conditions: 1000 g/ha unless otherwise stated, five-point scale
[9] = test system: Amaranthus retoflexus (AMARE); experiment: as above; conditions: 1000 g/ha unless otherwise stated; for percentage damage to the plant, AMARE: five-point scale; for percentage damage to the plant, AMARE (five-point scale): Amaranthus retoflexus
[10] = test system: Ipomoea hederacea (IPOHE); experiment: as above; conditions: 1000 g/ha unless otherwise stated; for percentage damage to the plant, IPOHE: five-point scale; for percentage damage to the plant, IPOHE (five-point scale): Ipomoea hederacea
[11] = test system: Solanum nigrum (SOLNI); experiment: Post-emergence Test (glasshouse, percentage damage to the plant); conditions: post-emergence spray, 1000 g/ha unless otherwise stated, evaluated after 13 days
How it was run: as §2

[12] = test system: Zea mays (ZEAMX); experiment: Pre-emergence Test (glasshouse, percentage damage to the plant); conditions: 1000 g/ha unless otherwise stated, Zea mays
[13] = test system: Amaranthus palmeri (AMAPA); experiment: Post-emergence Test (glasshouse, percentage damage to the plant); conditions: post-emergence; 1000 g/ha unless otherwise stated; evaluated after 13 days
How it was run: as §2

[14] = test system: Zea mays (ZEAMX); experiment: as above; conditions: post-emergence; 1000 g/ha unless otherwise stated; evaluated after 13 days
How it was run: as §1

[15] = test system: Amaranthus palmeri (AMAPA); experiment: Pre-emergence Test (glasshouse, percentage damage to the plant); conditions: 1000 g/ha unless otherwise stated, Amaranthus palmeri

`CCn1c(C)c(-c2ccc(Cl)cc2)c(=O)c(C(=O)NN(C)C)c1-c1ccc(Cl)c(Cl)c1` [Compound 2, 5-(4-chlorophenyl)-2-(3,4-dichlorophenyl)-1-ethyl-N′,N′,6-trimethyl-4-oxo-pyridine-3-carbohydrazide] was tested, and the “percentage damage to the plant, ECHCG” value [1] was 1 (1=0-20%), the “Post-emergence Test SETFA, percentage damage to the plant (five-point scale)” value [2] was 4 (4=61-80%) and the “Post-emergence Test LOLPE, percentage damage to the plant (five-point scale)” value [3] was 1 (1=0-20%). For the same compound, the “Post-emergence Test AMARE, percentage damage to the plant (five-point scale)” value [4] was 3 (3=41-60%), the “Post-emergence Test IPOHE, percentage damage to the plant (five-point scale)” value [5] was 2 (2=21-40%) and the “Post-emergence Test ECHCG, percentage damage to the plant (five-point scale)” value [6] was 2 (2=21-40%). For the same compound, the “percentage damage to the plant, SETFA” value [7] was 1 (1=0-20%), the “percentage damage to the plant, LOLPE” value [8] was 1 (1=0-20%) and the “percentage damage to the plant, AMARE” value [9] was 3 (3=41-60%).

For `CCn1c(C)c(-c2ccc(F)cc2F)c(=O)c(C(=O)O)c1-c1ccc(Cl)c(Cl)c1` [Compound 3, 2-(3,4-dichlorophenyl)-5-(2,4-difluorophenyl)-1-ethyl-6-methyl-4-oxo-pyridine-3-carboxylic acid], the “percentage damage to the plant, IPOHE” value [10] was 4 (4=61-80%), the “percentage damage to the plant, ECHCG” value [1] was 4 (4=61-80%) and the “Post-emergence Test SETFA, percentage damage to the plant (five-point scale)” value [2] was 5 (5=81-100%). For the same compound, the “Post-emergence Test LOLPE, percentage damage to the plant (five-point scale)” value [3] was 4 (4=61-80%), the “Post-emergence Test AMARE, percentage damage to the plant (five-point scale)” value [4] was 5 (5=81-100%) and the “Post-emergence Test IPOHE, percentage damage to the plant (five-point scale)” value [5] was 4 (4=61-80%). The “Post-emergence Test ECHCG, percentage damage to the plant (five-point scale)” value [6] was 5 (5=81-100%), the “percentage damage to the plant, SETFA” value [7] was 5 (5=81-100%) and the “percentage damage to the plant, LOLPE” value [8] was 3 (3=41-60%). The “percentage damage to the plant, AMARE” value [9] was 5 (5=81-100%).

In the case of `CCn1c(C)c(-c2ccc(F)cc2F)c(=O)c(C(=O)O)c1-c1ccc(-c2ccc(F)cc2F)c(Cl)c1` [Compound 4, 2-[3-chloro-4-(2,4-difluorophenyl)phenyl]-5-(2,4-difluorophenyl)-1-ethyl-6-methyl-4-oxo-pyridine-3-carboxylic acid], the “percentage damage to the plant, IPOHE” value [10] is reported as 1 (1=0-20%), the “percentage damage to the plant, ECHCG” value [1] is reported as 1 (1=0-20%) and the “Post-emergence Test SETFA, percentage damage to the plant (five-point scale)” value [2] is reported as 2 (2=21-40%). For the same compound, the “Post-emergence Test LOLPE, percentage damage to the plant (five-point scale)” value [3] was 1 (1=0-20%), the “Post-emergence Test AMARE, percentage damage to the plant (five-point scale)” value [4] was 3 (3=41-60%) and the “Post-emergence Test IPOHE, percentage damage to the plant (five-point scale)” value [5] was 2 (2=21-40%). The “Post-emergence Test ECHCG, percentage damage to the plant (five-point scale)” value [6] was 1 (1=0-20%), the “percentage damage to the plant, SETFA” value [7] was 1 (1=0-20%) and the “percentage damage to the plant, LOLPE” value [8] was 1 (1=0-20%). The “percentage damage to the plant, AMARE” value [9] was 1 (1=0-20%).

For `CCn1c(C)c(-c2ccc(Cl)nc2)c(=O)c(C(=O)O)c1-c1ccc(Cl)c(Cl)c1` [Compound 12, 5-(6-chloro-3-pyridyl)-2-(3,4-dichlorophenyl)-1-ethyl-6-methyl-4-oxo-pyridine-3-carboxylic acid], the “percentage damage to the plant, IPOHE” value [10] was 1 (1=0-20%), the “percentage damage to the plant, ECHCG” value [1] was 4 (4=61-80%) and the “Post-emergence Test SETFA, percentage damage to the plant (five-point scale)” value [2] was 5 (5=81-100%). For the same compound, the “Post-emergence Test LOLPE, percentage damage to the plant (five-point scale)” value [3] was 3 (3=41-60%), the “Post-emergence Test AMARE, percentage damage to the plant (five-point scale)” value [4] was 5 (5=81-100%) and the “Post-emergence Test IPOHE, percentage damage to the plant (five-point scale)” value [5] was 4 (4=61-80%). The “Post-emergence Test ECHCG, percentage damage to the plant (five-point scale)” value [6] was 4 (4=61-80%), the “percentage damage to the plant, SETFA” value [7] was 5 (5=81-100%) and the “percentage damage to the plant, LOLPE” value [8] was 1 (1=0-20%). For the same compound, the “percentage damage to the plant, AMARE” value [9] was 5 (5=81-100%).

In the case of `CCn1c(C)c(-c2cccnc2)c(=O)c(C(=O)O)c1-c1ccc(Cl)c(Cl)c1` [Compound 21, 2-(3,4-dichlorophenyl)-1-ethyl-6-methyl-4-oxo-5-pyridin-1-ium-3-yl-pyridine-3-carboxylic acid;2,2,2-trifluoroacetate], the “percentage damage to the plant, ECHCG” value [1] is reported as 2 (2=21-40%), the “Post-emergence Test AMARE, percentage damage to the plant (five-point scale)” value [4] is reported as 3 (3=41-60%) and the “Post-emergence Test SOLNI, percentage damage to the plant (five-point scale)” value [11] is reported as 4 (4=61-80%). The “Post-emergence Test IPOHE, percentage damage to the plant (five-point scale)” value [5] was 3 (3=41-60%), the “Post-emergence Test ECHCG, percentage damage to the plant (five-point scale)” value [6] was 3 (3=41-60%) and the “percentage damage to the plant, SETFA” value [7] was 3 (3=41-60%).

For `CCn1c(C)c(-c2cc(OCCOC)c(Cl)cc2F)c(=O)c(C(=O)O)c1-c1ccc(F)c(F)c1` [Compound 261, 5-[4-chloro-2-fluoro-5-(2-methoxyethoxy)phenyl]-2-(3,4-difluorophenyl)-1-ethyl-6-methyl-4-oxo-pyridine-3-carboxylic acid], the “percentage damage to the plant, ZEAMX (five-point scale)” value [12] was 1 (1=0-20%), the “percentage damage to the plant, IPOHE (five-point scale)” value [10] was 4 (4=61-80%) and the “percentage damage to the plant, ECHCG (five-point scale)” value [1] was 4 (4=61-80%). For the same compound, the “SETFA, percentage damage caused to the plant (five-point scale)” value [2] was 4 (4=61-80%), the “AMAPA, percentage damage caused to the plant (five-point scale)” value [13] was 4 (4=61-80%) and the “AMARE, percentage damage caused to the plant (five-point scale)” value [4] was 5 (5=81-100%). For the same compound, the “ZEAMX, percentage damage caused to the plant (five-point scale)” value [14] was 3 (3=41-60%), the “IPOHE, percentage damage caused to the plant (five-point scale)” value [5] was 2 (2=21-40%) and the “ECHCG, percentage damage caused to the plant (five-point scale)” value [6] was 4 (4=61-80%). The “percentage damage to the plant, AMAPA (five-point scale)” value [15] was 5 (5=81-100%), the “percentage damage to the plant, SETFA (five-point scale)” value [7] was 4 (4=61-80%) and the “percentage damage to the plant, AMARE (five-point scale)” value [9] was 4 (4=61-80%).

For `CCn1c(C)c(-c2cc(OCC3CC3)c(Cl)cc2F)c(=O)c(C(=O)O)c1-c1ccc(F)c(F)c1` [Compound 262, 5-[4-chloro-5-(cyclopropylmethoxy)-2-fluoro-phenyl]-2-(3,4-difluorophenyl)-1-ethyl-6-methyl-4-oxo-pyridine-3-carboxylic acid], the “percentage damage to the plant, ZEAMX (five-point scale)” value [12] was 2 (2=21-40%), the “percentage damage to the plant, IPOHE (five-point scale)” value [10] was 3 (3=41-60%) and the “percentage damage to the plant, ECHCG (five-point scale)” value [1] was 5 (5=81-100%). For the same compound, the “SETFA, percentage damage caused to the plant (five-point scale)” value [2] was 5 (5=81-100%), the “AMAPA, percentage damage caused to the plant (five-point scale)” value [13] was 5 (5=81-100%) and the “AMARE, percentage damage caused to the plant (five-point scale)” value [4] was 5 (5=81-100%). For the same compound, the “ZEAMX, percentage damage caused to the plant (five-point scale)” value [14] was 4 (4=61-80%), the “IPOHE, percentage damage caused to the plant (five-point scale)” value [5] was 2 (2=21-40%) and the “ECHCG, percentage damage caused to the plant (five-point scale)” value [6] was 4 (4=61-80%). The “percentage damage to the plant, AMAPA (five-point scale)” value [15] was 5 (5=81-100%), the “percentage damage to the plant, SETFA (five-point scale)” value [7] was 5 (5=81-100%) and the “percentage damage to the plant, AMARE (five-point scale)” value [9] was 5 (5=81-100%).
